Test results reported in ChEMBL document CHEMBL1201862, “PubChem BioAssay data set” (2004).
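Method: 48-hour compound exposure of cells in 96-well plates, five concentrations, linear interpolation of endpoints. GI50 is the concentration that inhibits growth by half.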 Activity calls are given as the source filed them. No stated cut-off is given here; in the data, active = GI50 up to about 1.1 µM and inactive = higher.

Experiments:
Experiment in all cases: DTP human tumour cell line panel, 48 h
786-0 = test system: 786-0
A498 = test system: A498
EKVX = test system: EKVX
IGROV-1 = test system: IGROV-1
KM12 = test system: KM12
M14 = test system: M14
MDA-MB-231 = test system: MDA-MB-231
NCI-H460 = test system: NCI-H460
SF-268 = test system: SF-268
SK-MEL-5 = test system: SK-MEL-5
SK-OV-3 = test system: SK-OV-3
SN12C = test system: SN12C
SNB-19 = test system: SNB-19
U-251 = test system: U-251
UACC-62 = test system: UACC-62
SNB-75 = test system: SNB-75
MDA-N = test system: MDA-N
RXF 393 = test system: RXF 393

Measured: GI50

CCCCc1ccc(Nc2nc(S)c3[nH]cnc3n2)cc1
inactive: 786-0 33.2 µM | A498 16.6 µM | EKVX > 10 µM | IGROV-1 18.7 µM | KM12 11.4 µM | M14 24.2 µM | MDA-MB-231 28.9 µM | NCI-H460 33.3 µM | SF-268 50.7 µM | SK-MEL-5 12.5 µM | SK-OV-3 > 10 µM | SN12C 22.8 µM | SNB-19 22.8 µM | U-251 24.7 µM | UACC-62 18.5 µM

S=c1sc2c(s1)SCc1cccc(n1)CSc1sc(=S)sc1SCc1cccc(n1)CS2
inactive: 786-0 > 100 µM | A498 > 100 µM | EKVX > 100 µM | IGROV-1 > 100 µM | KM12 > 100 µM | M14 > 100 µM | MDA-MB-231 > 100 µM | NCI-H460 > 100 µM | SF-268 > 100 µM | SK-MEL-5 > 100 µM | SK-OV-3 > 100 µM | SN12C > 100 µM | SNB-19 > 100 µM | SNB-75 > 100 µM | U-251 > 100 µM | UACC-62 > 100 µM

CCOC(=O)c1ccc(-c2ccc(Cl)cc2)[nH]1
inactive: 786-0 > 10 µM | EKVX 2.28 µM | IGROV-1 > 10 µM | KM12 > 10 µM | M14 > 10 µM | MDA-N 5.45 µM | NCI-H460 > 10 µM | SF-268 > 10 µM | SK-MEL-5 > 10 µM | SK-OV-3 > 10 µM | SN12C > 10 µM | SNB-19 > 10 µM | SNB-75 > 10 µM | U-251 > 10 µM | UACC-62 > 10 µM

CCn1c(-c2ccc(F)cc2)nc2c1C(=O)c1ccccc1C2=O
inactive: 786-0 > 100 µM | EKVX > 100 µM | IGROV-1 > 100 µM | KM12 > 100 µM | M14 71 µM | MDA-MB-231 > 100 µM | MDA-N > 100 µM | NCI-H460 > 100 µM | RXF 393 54 µM | SF-268 > 100 µM | SK-MEL-5 > 100 µM | SK-OV-3 20.7 µM | SN12C > 100 µM | SNB-19 > 100 µM | SNB-75 > 100 µM | U-251 > 100 µM | UACC-62 > 100 µM

CCOC(=O)c1c(-c2ccccc2)nc2ccccc2c1O
inactive: 786-0 > 100 µM | A498 > 100 µM | EKVX > 100 µM | IGROV-1 > 100 µM | KM12 > 100 µM | M14 > 100 µM | MDA-N > 100 µM | NCI-H460 > 100 µM | RXF 393 > 100 µM | SF-268 > 100 µM | SK-MEL-5 > 100 µM | SK-OV-3 > 100 µM | SNB-19 > 100 µM | SNB-75 > 100 µM | U-251 > 100 µM

COC(=O)CCC1=C(CC(=O)OC)C(C)(OC)N/C1=N/C(=O)OCc1ccccc1 (stereo not given)
inactive: 786-0 > 100 µM | A498 > 100 µM | EKVX > 100 µM | IGROV-1 > 100 µM | KM12 > 100 µM | M14 > 100 µM | MDA-MB-231 > 100 µM | NCI-H460 > 100 µM | RXF 393 > 100 µM | SF-268 > 100 µM | SK-MEL-5 > 100 µM | SK-OV-3 > 100 µM | SN12C > 100 µM | SNB-19 > 100 µM | SNB-75 > 100 µM | U-251 > 100 µM | UACC-62 > 100 µM

COC(=O)C1(C(=O)OC)N=C(C)OC1C(C)C (stereo not given)
inactive: 786-0 > 100 µM | A498 > 100 µM | EKVX > 100 µM | KM12 > 100 µM | M14 > 100 µM | MDA-N > 100 µM | NCI-H460 > 100 µM | RXF 393 > 100 µM | SK-MEL-5 > 100 µM | SK-OV-3 > 100 µM | SN12C > 100 µM | SNB-19 > 100 µM | SNB-75 > 100 µM | U-251 > 100 µM

O=C(CSc1nnc(-c2ccccn2)s1)N/N=C/c1ccccc1
inactive: 786-0 76.9 µM | A498 > 100 µM | IGROV-1 > 100 µM | KM12 > 100 µM | M14 > 100 µM | MDA-MB-231 > 100 µM | MDA-N > 100 µM | NCI-H460 > 100 µM | SF-268 48.9 µM | SK-MEL-5 > 100 µM | SK-OV-3 > 100 µM | SN12C > 100 µM | SNB-19 > 100 µM | SNB-75 3.03 µM | U-251 54.5 µM | UACC-62 > 100 µM

O=C(CP(c1ccccc1)c1ccccc1)c1cccc(C(=O)CP(c2ccccc2)c2ccccc2)c1
inactive: 786-0 85.7 µM | EKVX 56.9 µM | IGROV-1 > 100 µM | KM12 26.1 µM | M14 52.6 µM | MDA-MB-231 68.9 µM | MDA-N 70.3 µM | NCI-H460 19.7 µM | RXF 393 61.7 µM | SF-268 80.9 µM | SK-MEL-5 23.4 µM | SK-OV-3 > 100 µM | SN12C 56.8 µM | SNB-19 43.8 µM | SNB-75 55.6 µM | U-251 58.5 µM | UACC-62 78.3 µM

CCCCNC(=O)OCCN=c1c2ccccc2ccc2ccccc12
inactive: 786-0 > 100 µM | EKVX > 100 µM | IGROV-1 > 100 µM | KM12 > 100 µM | M14 > 100 µM | MDA-MB-231 > 100 µM | MDA-N > 100 µM | NCI-H460 > 100 µM | RXF 393 > 100 µM | SF-268 > 100 µM | SK-MEL-5 > 100 µM | SK-OV-3 > 100 µM | SN12C > 100 µM | SNB-19 > 100 µM | SNB-75 > 100 µM | U-251 > 100 µM | UACC-62 > 100 µM

Cc1ccc(C(=O)Nc2ccc(S(=O)(=O)O)c3cc(S(=O)(=O)O)cc(S(=O)(=O)O)c23)cc1NC(=O)c1cccc(N)c1
inactive: 786-0 > 100 µM | A498 > 100 µM | EKVX > 100 µM | IGROV-1 > 100 µM | KM12 > 100 µM | M14 > 100 µM | MDA-MB-231 > 100 µM | NCI-H460 > 100 µM | RXF 393 > 100 µM | SF-268 > 100 µM | SK-MEL-5 > 100 µM | SK-OV-3 > 100 µM | SN12C > 100 µM | SNB-19 > 100 µM | SNB-75 > 100 µM | U-251 > 100 µM | UACC-62 > 100 µM

CCOC(=O)c1nc2ccccc2nc1NCc1ccc(OC)cc1
inactive: 786-0 > 100 µM | A498 32.2 µM | EKVX > 100 µM | IGROV-1 > 100 µM | KM12 44.6 µM | MDA-MB-231 99.8 µM | NCI-H460 82.8 µM | RXF 393 23.4 µM | SF-268 > 100 µM | SK-MEL-5 > 100 µM | SK-OV-3 > 100 µM | SNB-75 48.8 µM | U-251 64.3 µM | UACC-62 84.1 µM
